This note sets out measurements from publication PMC11249239 (PLOS ONE, 2024).

In one data set the test system is phosphorylated p53. Nature of the data set: Western blot, phosphorylated p53. The class given is cell-based. The conditions noted are these: 1 μM. An excerpt: (§1) Following treatment of cells with SP-1-303 over a time course, total or nuclear proteins were extracted and analyzed on 4–20% trisglycine gradient sodium dodecyl sulfate polyacrylamide gel electrophoresis (SDS-PAGE). Subsequently, membranes were probed with antibodies targeting specific proteins in accordance with the manufacturers’ protocols, including ATM (ab78), p-BRCA1 (ab90528), BRCA1 (ab191042), p-p53/S15 (ab1431), acetylated H3K9 (ab12179) from Abcam, as well as p-ATM (# 5883) and p53 (#9282) from Cell Signaling, α-tubulin (T6793) and β-actin (A3854) from Sigma-Aldrich, ER-α (cat# MA1-80216, Invitrogen) and HDAC2 (BML-SA402. Enzo). Protein images were captured using ECL Prime Western Blotting Detection Reagents (Cat#. RPN2232, Amersham) and the Amersham Imager 600. For immunofluorescent analysis, formalin fixed cells were permeabilized with 0.1% Triton X-100 in TBS for 10 minutes at room temperature, followed by blocking with 1% Blocker BSA for 15 minutes at room temperature. Cells were then probed with a phospho-ATM monoclonal antibody (MA5-15185) and DyLight 488 goat anti-mouse IgG secondary antibody at room temperature. Actin was stained with DyLight 554 phalloidin, while nuclei were stained with 4’,6-diamidino-2-phenylindole dye (DAPI). Images were captured using a Nikon Epi Fluorescent microscopy.
For orientation: Immunoblotting shows a protein as a band on a membrane.

In a further data set the target is HDAC5 (Homo sapiens, UniProt Q9UQL6). Nature of the data set: HDAC5 activity inhibition (data not shown). The class given is biochemical. Conditions: read-out: IC50 class IIa HDAC5 inhibition.
For another data set, the system named is MCF7 (ER+) cells. Nature of the data set: Cell growth inhibition (CCK8 cytotoxicity assay), MCF7. Conditions: Homo sapiens, 48 h treatment, read-out: Average EC50 ± SD, cell growth inhibition. The class given is cell-based.
The test system of data set [1] is ER+ BC cells (MCF-7 and T47D). Nature of the data set: Cell growth inhibition, ER+ breast cancer cells stated together. The class given is cell-based. An excerpt: Prism-GraphPad software was used to analyze data.
A further data set concerns ER-α. The data set can be described thus: Western blot of nuclear extracts, ER-α expression. Conditions: MCF7; 1 μM; from 2h to 6h. The class given is cell-based.
Text: as §1

The nature of data set [2]: Plasma pharmacokinetics after intravenous administration. The class given is in vivo, Sprague-Dawley rats. The conditions noted are these: 20 mg/kg IV. An excerpt: A commercial vendor (Medicilon, Inc.) performed the pharmacokinetic studies. Male Sprague-Dawley Rats (n = 8) were received from Sino-British SIPPR/BK Lab Animal Ltd., Shanghai, and 6 animals were placed on study. All studies were approved by the Institutional Animal Care and Use Committee (Protocol #: 19098–17002) of Medicilon Preclinical Research-Shanghai LLC, Pudong Shanghai 201200, P.R. China. The animals were allowed to acclimatize for at least 5 d before beginning the study. The procedure was performed under general anesthesia with 3–5% isoflurane for blood collections via jugular vein. All efforts were made to minimizing suffering and least stressful. The compound was dissolved in 5% DMSO + 40% PEG400 + 55% PBS to yield a final concentration of 2 mg/ml. The tolerated dose (20 mg/Kg) was administered via intravenous (IV) in rats. After IV administration, blood samples were collected via jugular vein at various time points (0, 1, 2, 4, 6, and 8 h) under general anesthesia with 3–5% isoflurane. Samples were then placed into tubes containing K2EDTA and centrifuged at 8,000 rpm for 6 min to obtain plasma. The resulting plasma were analyzed by LCMS. Following completion of the study, all surviving animals were euthanized with CO2, followed by cervical dislocation. Pharmacokinetic analysis was determined using a non-compartmental module of WinNonlin Professional 5.2. The maximum measured plasma concentrations (Cmax) and the time of Cmax (tmax) were derived directly from the data. The area under the curve (AUC) was calculated using the log-linear trapezoidal method rule up to the last data point and was extrapolated to infinity with the following formula: Clast/β, where Clast is the last measured concentration time point. The elimination half-life was calculated with the equation t1/2 = 0.693/β, where β is the terminal rate constant. The clearance (Cl = dose/AUC) rate was also evaluated.

Chain of HDAC5 (Q9UQL6 whole entry, species assumed): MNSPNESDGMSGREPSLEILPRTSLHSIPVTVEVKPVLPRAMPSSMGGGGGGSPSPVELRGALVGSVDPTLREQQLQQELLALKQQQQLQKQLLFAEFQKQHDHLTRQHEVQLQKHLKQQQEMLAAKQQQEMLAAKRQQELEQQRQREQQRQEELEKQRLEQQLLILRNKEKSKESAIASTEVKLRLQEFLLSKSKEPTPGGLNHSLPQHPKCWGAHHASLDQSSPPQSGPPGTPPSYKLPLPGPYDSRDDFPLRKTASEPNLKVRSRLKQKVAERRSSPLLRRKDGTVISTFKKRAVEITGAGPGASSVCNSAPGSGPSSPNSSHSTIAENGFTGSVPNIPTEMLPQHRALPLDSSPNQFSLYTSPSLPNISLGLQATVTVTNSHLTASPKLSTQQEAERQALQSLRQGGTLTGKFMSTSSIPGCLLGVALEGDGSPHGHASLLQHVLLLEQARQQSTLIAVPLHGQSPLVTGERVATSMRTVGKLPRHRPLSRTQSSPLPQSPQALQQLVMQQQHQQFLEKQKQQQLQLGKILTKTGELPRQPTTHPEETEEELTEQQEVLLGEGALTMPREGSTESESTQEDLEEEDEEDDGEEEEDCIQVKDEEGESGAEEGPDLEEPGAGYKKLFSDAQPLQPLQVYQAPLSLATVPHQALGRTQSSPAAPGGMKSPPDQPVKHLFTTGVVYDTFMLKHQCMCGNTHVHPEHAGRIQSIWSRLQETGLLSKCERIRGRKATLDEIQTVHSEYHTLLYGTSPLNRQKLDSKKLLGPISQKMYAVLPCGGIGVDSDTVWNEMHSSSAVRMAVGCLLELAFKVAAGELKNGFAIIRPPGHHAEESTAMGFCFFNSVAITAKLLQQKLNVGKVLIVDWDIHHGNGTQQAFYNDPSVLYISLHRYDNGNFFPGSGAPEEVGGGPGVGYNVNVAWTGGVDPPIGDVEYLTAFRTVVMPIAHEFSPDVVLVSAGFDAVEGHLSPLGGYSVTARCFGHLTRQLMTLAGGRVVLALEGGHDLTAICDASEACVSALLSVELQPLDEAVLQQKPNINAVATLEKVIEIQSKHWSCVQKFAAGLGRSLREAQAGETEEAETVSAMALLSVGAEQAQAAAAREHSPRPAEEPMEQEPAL

For `Cc1[nH]c2ccccc2c1C1=C(c2c(C)[nH]c3ccccc23)C(=O)N(CCCCCCC(=O)NO)C1=O` [SP-1-303], the “phosphorylated p53” value with phosphorylated p53 (MCF7, within 1h to 2h) is reported as “induction”; in the data set with phosphorylated p53 (MDA-MB-231), “no phosphorylated p53”. For the same molecule, the IC50 (in general, the concentration at which inhibition is half-maximal) on HDAC5 is more than 20000 nM. The EC50 in the data set with MCF7 (ER+) cells is 340 ± 122 nM; in data set [1] (range over MCF-7 and T47D cells, read-out: effective growth inhibition concentrations (EC50)), 320 to 340 nM. The “inhibition of ER+ BC cell growth compared to ER- TNBC cell growth” value in data set [1] is reported as 4-8 fold. Further, in data set [1] (more potent than SAHA), the “potency in ER+ cell lines relative to SAHA” value was 10 fold. The ER-α expression entry with ER-α was “gradual reduction”. For the same molecule, the Tmax in data set [2] (male, Sprague-Dawley, plasma, rat, mean value, read-out: tmax, time to reach maximum plasma concentration) is 4.98 min. Moreover, the half-life in data set [2] (male, Sprague-Dawley, plasma, rat, read-out: t1/2, elimination half-life (converted)) was 75.6 min. In data set [2] (rat plasma, 4 h), the “compound remaining in plasma at 4 h” value stood at 1%. The “AUC, area under the curve” value in data set [2] (rat) is reported as 5227.55 ng/ml x h.
